Test results reported in PMC5069690, “Hepatic 3D spheroid models for the detection and study of compounds with cholestatic liability” (Scientific Reports, 2016).
Values joined by “and” are separate entries in the source; they are usually repeats but may differ in a detail not shown here. Equal entries are not always repeated. Where two headings read alike, the source gives them in different places.

Tests used:
[1] = tested on: multi-donor PHH spheroids; assay: Repeated-exposure toxicity in multi-donor PHH spheroids with or without BA mixture, albumin secretion; type: cell-based, human; conditions: for EC50: Homo sapiens, 336 h, 14 days repeated exposure
Procedure: The cells were seeded in PHH medium (Williams’ medium E containing 100 units/ml penicillin, 100 μg/ml streptomycin, 2 mM L-glutamine, 10 μg/ml insulin, 5.5 μg/ml transferrin, 6.7 ng/ml sodium selenite, 100 nM dexamethasone) supplemented with 10% fetal bovine serum. […] When PHH had reassembled into compact aggregates (day 4–6 after seeding), spheroids were shifted to serum-free PHH medium. […] The spheroids were maintained in serum-free PHH medium.
(§1) Toxicity studies were started at day 8 and day 5 for PHH and HepaRG spheroids, respectively.

HepaRG spheroids = assay: Repeated-exposure toxicity in HepaRG spheroids with or without BA mixture, cellular ATP content; type: cell-based, human; conditions: for CIx (mean of the independent experiments): 8 days co-exposure with BAs vs compound alone; for Cholestatic Index (EC50 (+BA) / EC50 (-BA)) / CC50: ATP, one value per independent experiment; for CC50: Homo sapiens, HepaRG, compound alone, read-out: Without BA EC50
Procedure: Cryopreserved differentiated HepaRG cells (Biopredic International, France) were thawed according to the supplier’s instructions. The cells were seeded in Williams’ medium E with GlutaMAX^TM containing the thaw, seed and general purpose additive (ADD670; Biopredic International). The cells were seeded at a density of 2,000 viable cells per well in ULA plates. From day 5, the spheroids were maintained in medium containing 0.5% DMSO, the serum-free induction additive (ADD650, Biopredic International), 20 ng/ml epidermal growth factor and 10 ng/ml hepatocyte growth factor (HumaXpress, Nordic BioSite, Sweden).
as §1

PHH spheroids [2] = assay: Repeated-exposure toxicity in PHH spheroids with or without BA mixture, cellular ATP content; conditions: for CC50: Homo sapiens; for CC50 / Cholestatic Index (EC50 (+BA) / EC50 (-BA)): one value per independent experiment; for CIx (mean of the independent experiments): 8 days co-exposure with BAs vs compound alone; for Cholestatic Index (EC50 (+BA) / EC50 (-BA)): ATP;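 on all read-outs here: primary human hepatocyte spheroids dosed every second day with compound, with or without a bile acid mixture, viability read as cellular ATP by luminescence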
Procedure: Cryopreserved PHH (Bioreclamation IVT, USA) were thawed according to the supplier’s instructions. The cells were seeded in PHH medium (Williams’ medium E containing 100 units/ml penicillin, 100 μg/ml streptomycin, 2 mM L-glutamine, 10 μg/ml insulin, 5.5 μg/ml transferrin, 6.7 ng/ml sodium selenite, 100 nM dexamethasone) supplemented with 10% fetal bovine serum. The cells were seeded at a density of 1,500 viable cells per well in ultra-low attachment (ULA) plates (Corning). When PHH had reassembled into compact aggregates (day 4–6 after seeding), spheroids were shifted to serum-free PHH medium. […] The hepatocytes were derived from 5 male and 5 female donors and were aggregated into 3D microtissues in GravityPLUS™ hanging drop plates and cultivated and assayed in GravityTRAP™ plates. The spheroids were maintained in serum-free PHH medium.
(§2) Stock solutions of the compounds were diluted in culture medium to a maximal final DMSO concentration of 0.3% for PHH spheroids and 0.6% for HepaRG spheroids. Toxicity studies were started at day 8 and day 5 for PHH and HepaRG spheroids, respectively. Spheroids were treated every other day with the compounds in the presence or absence of the BA mixture. Cellular ATP content was determined as a marker of cell viability using the CellTiter-Glo Luminescent Cell Viability Assay (Promega, Sweden). When indicated, albumin concentrations were determined by ELISA (Bethyl laboratories, USA).
(§3) To evaluate the cholestatic risk of the tested compounds we introduced the cholestatic index (CIx). The CIx is defined as the ratio between the EC50-value from co-exposure to a compound and the BA mixture and the EC50-value from exposure to the compound alone.

PHH spheroids [3] = assay: Toxicity in PHH spheroids with or without BA mixture, albumin secretion read-out (Supplementary Fig. S2); conditions: 8 days, Supplementary Fig. S2B
Procedure: as §2, §3

BSEP = conditions: quoted in the discussion, no reference given; read-out: BSEP inhibition IC50; cited from earlier work
[4] = multi-donor PHH spheroids (10 donors), co-exposure with BA mixture, albumin secretion, read-out: With BA EC50
[5] = multi-donor PHH spheroids (10 donors), compound alone, albumin secretion, read-out: Without BA EC50
[6] = 192 h, read-out: Without BA EC50, PHH spheroids, 8 days repeated exposure, compound alone, ATP
[7] = 336 h, read-out: Without BA EC50, PHH spheroids, 14 days repeated exposure, compound alone, ATP

Row | SMILES | EC50 [1, 4] | EC50 [1, 5] | Cholestatic Index (EC50 (+BA) / EC50 (-BA)) ([1]; both, human, 14 days) | Cholestatic risk classification based on CIx (HepaRG spheroids; 8 days) | CIx (mean of the independent experiments) (HepaRG spheroids) | Cholestatic Index (EC50 (+BA) / EC50 (-BA)) (HepaRG spheroids; 8 days) | CC50 (PHH spheroids [2]; [6]) | CC50 (PHH spheroids [2]; [7]) | Cholestatic risk classification based on CIx (PHH spheroids [2]; PHH spheroids, 8 days) | CIx (mean of the independent experiments) (PHH spheroids [2]; PHH spheroids) | Cholestatic Index (EC50 (+BA) / EC50 (-BA)) (PHH spheroids [2]; PHH spheroids, 8 days) | Cholestatic Index (EC50 (+BA) / EC50 (-BA)) (PHH spheroids [2]; PHH spheroids, 14 days) | further results
1 | CN(CCOc1ccc(CC2SC(=O)NC2=O)cc1)c1ccccn1 (centres unmarked) [Rosiglitazone, rosiglitazone] | 17 µM | 19 µM | 0.89 |  |  |  |  |  |  |  |  |  | 
2 | CN(C)[C@@H]1C(O)=C(C(N)=O)C(=O)[C@@]2(O)C(O)=C3C(=O)c4c(O)cccc4[C@@](C)(O)[C@H]3C[C@@H]12 [Tetracycline, tetracycline] | 123 µM | 120 µM |  | low cholestatic risk (Compounds with a CIx ≥ 0.80) | 1.05 ± 0.12 | 0.91 and 1.13 and 1.12 | 116 µM | 74 µM | low cholestatic risk (Compounds with a CIx ≥ 0.80) | 1.00 ± 0.08 | 1.01 and 0.91 and 1.07 | 1.41 and 1.07 and 0.94 | Cholestatic risk classification based on CIx (HepaRG spheroids; 14 days): low cholestatic risk (Compounds with a CIx ≥ 0.80); Cholestatic Index (EC50 (+BA) / EC50 (-BA)) (HepaRG spheroids; 14 days): 0.95 and 1.18 and 1.16; CC50 (HepaRG spheroids; 192 h, 8 days repeated exposure): 242 µM; CC50 (HepaRG spheroids; 336 h, 14 days repeated exposure): 121 µM; Cholestatic Index (EC50 (+BA) / EC50 (-BA)) ([1]; multi-donor PHH spheroids (10 donors), 14 days, albumin secretion): 1.03; Cholestatic risk classification based on CIx ([1]; multi-donor PHH spheroids, 14 days): low cholestatic risk (Compounds with a CIx ≥ 0.80); CIx (PHH spheroids [2]; PHH spheroids, 8 days, cellular ATP content read-out, Supplementary Fig. S2A): 0.87; Cholestatic risk classification based on CIx (PHH spheroids [2]; PHH spheroids, 14 days): low cholestatic risk (Compounds with a CIx ≥ 0.80); CIx (PHH spheroids [3]): 1.08
3 | Clc1ccccc1CN1CCc2sccc2C1 [Ticlopidine, ticlopidine] | 21 µM | 23 µM |  |  |  |  |  |  |  |  |  |  | 
4 | Cc1ccc(C(=O)c2cc(O)c(O)c([N+](=O)[O-])c2)cc1 [Tolcapone, tolcapone] | 13 µM | 14 µM | 0.93 |  |  |  |  |  |  |  |  |  | 
5 | Cc1c(C)c2c(c(C)c1O)CCC(C)(COc1ccc(CC3SC(=O)NC3=O)cc1)O2 (centres unmarked) [Troglitazone, troglitazone] | 8.8 µM | 14 µM | 0.63 | cholestatic risk (compounds with a CIx ≤ 0.80 were considered to have cholestatic risk) | 0.71 ± 0.17 | 0.56 and 0.90 and 0.67 | 11 µM | 6.2 µM | cholestatic risk (compounds with a CIx ≤ 0.80 were considered to have cholestatic risk) | 0.80 ± 0.17 | 0.99 and 0.72 and 0.67 | 0.45 and 0.67 and 0.86 | IC50 (BSEP): 2.7 µM
